From publication PMC3506619, “NADP^+ Binding to the Regulatory Subunit of Methionine Adenosyltransferase II Increases Intersubunit Binding Affinity in the Hetero-Trimer” (PLoS ONE, 2012)
Positions count from the first letter of the chain named.

Experiments:
[1] = target: T1, Truncated MAT II (α2 dimer + ΔS16 β) (Homo sapiens, UniProt P31153, G193S/A233V); assay: MAT activity assay (AdoMet synthesis); assay type: biochemical; settings: 5 mM methionine, 37 °C, no added NADP+
T1 construct: gene MAT2A; ratio 2:1; with Methionine adenosyltransferase 2 subunit beta
Description: MAT activity assay (AdoMet synthesis) on Truncated MAT II (α2 dimer + ΔS16 β)

[2] = target: T2, refolded-α2 (MAT α2 homo-dimer) (Homo sapiens, UniProt P31153, G193S/A233V); assay: MAT activity assay (AdoMet synthesis); assay type: biochemical; settings: 5 mM methionine, 37 °C, no added NADP+
T2 construct: gene MAT2A; 43447 Da; dimer (tetramer at higher concentration); all cloned ORFs carry A233V and G193S
Description: MAT activity assay (AdoMet synthesis) on refolded-α2 (MAT α2 homo-dimer)

[3] = target: T3, MAT II (α2 dimer + wild type β hetero-trimer) (Homo sapiens, UniProt P31153, G193S/A233V, form not given); assay: MAT activity assay (AdoMet synthesis); assay type: biochemical; settings: 5 mM methionine, 37 °C, no added NADP+
T3 construct: gene MAT2A; hetero-trimer 2:1; with Methionine adenosyltransferase 2 subunit beta
Description: MAT activity assay (AdoMet synthesis) on MAT II (α2 dimer + wild type β hetero-trimer)

[4] = target: T4, MAT β subunit (regulatory β subunit, V1 form) (Homo sapiens, UniProt Q9NZL9); assay: isothermal titration calorimetry; assay type: binding; settings: read-out: NADP^+→β
T4 construct: gene MAT2B; full length V1 from GST fusion in E. coli, TEV-cut, GSH linker retained at N-terminus; monomer/dimer equilibrium
T4 sequence (Q9NZL9 1-334): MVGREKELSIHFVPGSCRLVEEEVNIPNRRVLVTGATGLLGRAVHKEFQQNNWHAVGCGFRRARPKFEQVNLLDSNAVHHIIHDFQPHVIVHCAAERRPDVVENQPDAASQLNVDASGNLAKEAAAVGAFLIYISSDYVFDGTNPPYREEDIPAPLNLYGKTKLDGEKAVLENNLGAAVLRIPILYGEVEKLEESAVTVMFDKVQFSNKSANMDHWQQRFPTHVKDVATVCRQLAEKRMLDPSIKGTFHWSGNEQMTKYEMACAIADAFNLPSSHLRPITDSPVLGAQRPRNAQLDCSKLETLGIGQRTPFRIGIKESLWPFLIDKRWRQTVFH
Description: isothermal titration calorimetry on MAT β subunit (regulatory β subunit, V1 form)

[5] = target: T5, MAT β subunit (regulatory β subunit, V1 form) (Homo sapiens, UniProt Q9NZL9, K163A/Y159F); assay: isothermal titration calorimetry; assay type: binding
T5 construct: gene MAT2B; full length V1 from GST fusion in E. coli, TEV-cut, GSH linker retained at N-terminus; monomer/dimer equilibrium
T5 sequence (Q9NZL9 1-334 Y159F/K163A): T4 sequence (Q9NZL9 1-334) with Y159F, K163A

T1 sequence (P31153 whole entry G193S/A233V, stated change not applied, one chain of several, the tested form may be a part): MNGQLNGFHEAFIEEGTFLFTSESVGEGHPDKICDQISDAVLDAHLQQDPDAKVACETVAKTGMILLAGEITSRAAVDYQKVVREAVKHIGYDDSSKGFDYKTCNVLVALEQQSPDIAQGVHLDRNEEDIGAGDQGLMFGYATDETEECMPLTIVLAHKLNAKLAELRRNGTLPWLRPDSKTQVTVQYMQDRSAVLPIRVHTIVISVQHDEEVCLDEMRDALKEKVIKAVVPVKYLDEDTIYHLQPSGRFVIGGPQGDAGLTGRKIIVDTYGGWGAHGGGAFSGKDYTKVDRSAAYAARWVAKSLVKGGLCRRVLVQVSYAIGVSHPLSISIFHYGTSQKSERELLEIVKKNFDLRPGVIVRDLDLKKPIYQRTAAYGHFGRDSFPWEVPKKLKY
T2 sequence (P31153 whole entry G193S/A233V): as the sequence (P31153 whole entry G193S/A233V, stated change not applied, one chain of several, the tested form may be a part) above
T3 sequence (P31153 whole entry G193S/A233V, form open): as the sequence (P31153 whole entry G193S/A233V, stated change not applied, one chain of several, the tested form may be a part) above
T3 sequence (Q9NZL9 whole entry Y159F/K163A partner, form open): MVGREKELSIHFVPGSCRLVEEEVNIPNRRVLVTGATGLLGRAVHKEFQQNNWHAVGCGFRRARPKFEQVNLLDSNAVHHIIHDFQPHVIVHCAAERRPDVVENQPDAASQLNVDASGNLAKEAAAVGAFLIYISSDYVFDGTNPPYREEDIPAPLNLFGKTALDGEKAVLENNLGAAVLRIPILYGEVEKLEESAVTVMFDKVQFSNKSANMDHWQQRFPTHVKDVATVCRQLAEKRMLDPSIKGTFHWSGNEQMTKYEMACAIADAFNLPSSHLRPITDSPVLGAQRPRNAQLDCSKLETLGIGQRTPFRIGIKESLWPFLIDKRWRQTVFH

Km [1] [µM]	Km [2] [µM]	Km [3] [µM]	Kd [4] [µM]	Kd [5] [µM]	SMILES
151 ± 81.4	254 ± 66.2	125 ± 32.2	–	–	Nc1ncnc2c1ncn2[C@@H]1O[C@H](COP(=O)(O)OP(=O)(O)OP(=O)(O)O)[C@@H](O)[C@H]1O [ATP]
–	–	–	1.7	> 150	NC(=O)c1ccc[n+]([C@@H]2O[C@H](COP(=O)(O)OP(=O)(O)OC[C@H]3O[C@@H](n4cnc5c(N)ncnc54)[C@H](OP(=O)(O)O)[C@@H]3O)[C@@H](O)[C@H]2O)c1 [NADP^+]
